From patent US11498909B2, “Compound acting as antibiotics” (KBP BIOSCIENCES CO., LTD., priority 2018, dated 2022)
≈ marks a conversion by molar mass, not a printed value. Like-named read-outs stand apart in the source and are kept apart here.

What was measured:
[1] = system: Pseudomonas aeruginosa; assay: In vitro antibacterial activity, agar dilution MIC (Experiment 1); assay type: cell-based
Experimental: Tested strains: all the clinically separated strains below were purchased from public facilities.
Escherichia coli ATCC25922, Pseudomonas aeruginosa ATCC27853, Klebsiella pneumoniae ATCC700603, and the like.
Tested Samples: Imipenem, Ceftazidime: Commercial Products, the Following Experiments were Carried Out According to the Content of an Effective Ingredient in Each Commercial Product;
The compounds of the present invention, their chemical names, and preparation methods are shown in the preparation example of each compound.
Experiment method: Agar dilution method, refer to National Committee for Clinical Laboratory Standards. 2006. Methods for Dilution Antimicrobial Susceptibility Tests for Bacteria That Grow Aerobically; Approved Standard—Seventh Edition M7-A7, Vol 26, No. 2, 2006, to determine the MIC of the compound. MIC represents the minimum inhibitory concentration.

[2] = Pharmacokinetics (PK) determination in SD rats (Experiment 4); assay type: in vivo; conditions: plasma; for Cl_obs / Vz_obs / t1/2z / λ_z: IV 2 mg/kg; for AUC(0-t) / AUC(0-inf): Sprague-Dawley (SD), rat, iv, 2 mg/kg; for AUC(0-inf): read-out: AUCINF_obs
Experimental: The compound of the present invention, self-prepared and dissolved in a suitable solvent.
Instrument and equipment: API4000 LC-MS/MS
Chromatographic column: Waters XBridge C18(2.1×50 mm, […])
Rat blood collection: Animals were fixed. The animal's tail was heated with a water bathtub 10 minutes before each time point. About 200 μL of the blood was collected through the caudal vein. After the blood collection, the blood was placed in an anticoagulation tube containing heparin sodium. The blood samples were centrifuged at 8000 rpm for 6 minutes at 4° C. to obtain plasma samples. The plasma must be prepared within 30 minutes after the blood collection. The plasma was stored in a refrigerator at −80° C. before the test.
(1) Test samples were removed from the refrigerator (−80° C.), naturally thawed at room temperature, and then vortexed for 5 minutes;
(2) 20 μL sample was precisely pipetted to a 1.5 mL centrifuge tube;
(3) 200 μL of the internal standard solution was added;
(4) The mixture was vortexed for 5 minutes and centrifuged for 5 minutes (12000 revolutions per minute);
(5) 100 μL of the supernate was precisely pipetted, 100 μL of water was added, the mixture was vortexed for 5 minutes, and the sample was sent to LC-MS/MS for analysis.
The results of the concentrations of the test samples (plasma samples) were output with Analyst 1.6.1 of AB Corporation. The meaning value, the standard deviation, the coefficient of variation, and other parameters (not necessary to calculate the parameter that can be directly output from Analyst 1.6.1) were calculated with Microsoft Excel, and the PK parameter is calculated with Pharsight Phoenix 6.1 software.

[3] = agar dilution (Table 3), read-out: MIC50
[4] = agar dilution (Table 3), read-out: MIC90

Compound: CC(C)(O/N=C(\C(=O)N[C@@H]1C(=O)N2C(C(=O)[O-])=C(C[n+]3ccccc3)CS[C@H]12)c1csc(N)n1)C(=O)O [Ceftazidime, reference compound]
- MIC50 [1, 3]: 2 µg/mL (≈ 3.66 µM)
- MIC90 [1, 4]: > 16 µg/mL

Compound: CC(CCn1ccc(-c2ccc(C#Cc3ccc(CN4CCOCC4)o3)cc2)cc1=O)(C(=O)NO)S(C)(=O)=O (stereo not shown) [Compound 45, N-hydroxy-2-methyl-2-(methylsulfonyl)-4-(4-(4-((5-(morpholinomethyl)furan-2-yl)ethynyl)phenyl)-2-oxopyridin-1(2H)-yl)butanamide]
- MIC50 [1, 3]: 4 µg/mL (≈ 7.22 µM)

Compound: C[C@@H](O)[C@H](NC(=O)c1ccc(C#CC#Cc2ccc(CNCCCN)o2)cc1)C(=O)NO [Compound 12, 4-((5-((3-aminopropylamino)methyl)furan-2-yl)buta-1,3-diynyl)-N-((2S,3R)-3-hydroxy-1-(hydroxyamino)-1-oxobutan-2-yl)benzamide]
- MIC50 [1, 3]: 2 µg/mL (≈ 4.56 µM)
- MIC90 [1, 4]: 4 µg/mL (≈ 9.12 µM)

Compound: C[C@@H](O)[C@H](NC(=O)c1ccc(C#Cc2ccc(-c3ccnn3C)cc2)cc1)C(=O)NO [Compound 36, N-((2S,3R)-3-hydroxy-1-(hydroxyamino)-1-oxobutan-2-yl)-4-((4-(1-methyl-1H-pyrazol-5-yl)phenyl)ethynyl)benzamide]
- MIC50 [1, 3]: 2 µg/mL (≈ 4.78 µM)
- MIC90 [1, 4]: > 16 µg/mL

Compound: C[C@@](CCn1ccc(-c2ccc(C#Cc3ccc(CO)o3)cc2)cc1=O)(C(=O)NO)S(C)(=O)=O [Compound 46]
- MIC50 [1, 3]: 1 µg/mL (≈ 2.06 µM)
- MIC90 [1, 4]: 8 µg/mL (≈ 16.5 µM)

Compound: C[C@@H](O)[C@H](NC(=O)c1ccc(C#CC#Cc2oc(CO)cc2-c2ccccc2)cc1)C(=O)NO [Compound 17, N-((2S,3R)-3-hydroxy-1-(hydroxyamino)-1-oxobutan-2-yl)-4-((5-(hydroxymethyl)-3-phenylfuran-2-yl)buta-1,3-diynyl)benzamide]
- MIC50 [1, 3]: 8 µg/mL (≈ 17.4 µM)
- MIC90 [1, 4]: > 16 µg/mL

Compound: C[C@@H](O)[C@H](NC(=O)c1ccc(C#CC#Cc2ccc(CN3CCNCC3)o2)cc1)C(=O)NO [Compound 24, N-((2S,3R)-3-hydroxy-1-(hydroxyamino)-1-oxobutan-2-yl)-4-((5-(piperazin-1-ylmethyl)furan-2-yl)buta-1,3-diynyl)benzamide]
- MIC50 [1, 3]: 4 µg/mL (≈ 8.88 µM)
- MIC90 [1, 4]: > 16 µg/mL

Compound: C[C@@H](O)[C@H](NC(=O)c1ccc(C#CC#Cc2ccnn2C)cc1)C(=O)NO [Compound 34, N-((2S,3R)-3-hydroxy-1-(hydroxamino)-1-oxobutan-2-yl)-4-((1-methyl-1H-pyrazol-5-yl)buta-1,3-diynyl)benzamide]
- MIC50 [1, 3]: 4 µg/mL (≈ 10.9 µM)
- MIC90 [1, 4]: > 16 µg/mL

Compound: Cn1nccc1-c1ccc(C#Cc2ccc(C(=O)N[C@H](C(=O)NO)C(C)(C)N)cc2)cc1 [Compound 35, (S)—N-(3-amino-1-(hydroxyamino)-3-methyl-1-oxobutan-2-yl)-4-((4-(1-methyl-1H-pyrazol-5-yl)phenyl)ethynyl)benzamide]
- MIC50 [1]: 2 µg/mL (≈ 4.64 µM)
- MIC90 [1]: 16 µg/mL (≈ 37.1 µM)

Compound: N-((2S,3R)-3-hydroxy-1-(hydroxyamino)-1-oxobutan-2-yl)-4-((5-((2-(2-hydroxyethoxy)ethylamino)methyl)furan-2-yl)buta-1,3-diynyl)benzamide [Compound 19]
- MIC50 ([1]; agar dilution (Table 3)): 2 µg/mL
- MIC90 ([1]; agar dilution (Table 3)): 8 µg/mL

Compound: C[C@@H](O)[C@H](NC(=O)c1ccc(/C=C/C=C/c2ccc(CO)o2)nc1)C(=O)NO [Compound 32]
- Cl_obs [2]: 96.7 ± 8.83 mL/min/kg
- Vz_obs [2]: 4.24 ± 1.65 L/kg
- t1/2z [2]: 30.4 ± 10.8 min
- λ_z [2]: 1.48 ± 0.46 h⁻¹
- AUC(0-t) [2]: 344 ± 33.7 ng·h/mL
- AUC(0-inf) [2]: 347 ± 32.7 ng·h/mL

Compound: Cn1nccc1-c1ccc(C#Cc2ccc(-c3ccn(CCC(C)(C(=O)NO)S(C)(=O)=O)c(=O)c3)cc2)cc1 (stereo not shown) [Compound 38, N-hydroxy-2-methyl-4-(4-(4-((4-(1-methyl-1H-pyrazol-5-yl)phenyl)ethynyl)phenyl)-2-oxopyridin-1(2H)-yl)-2-(methylsulfonyl)butanamide]
- Cl_obs [2]: 16.8 ± 1.5 mL/min/kg
- Vz_obs [2]: 1.81 ± 0.17 L/kg
- t1/2z [2]: 75 ± 5.4 min
- λ_z [2]: 0.56 ± 0.04 h⁻¹
- AUC(0-t) [2]: 1940 ± 168 ng·h/mL
- AUC(0-inf) [2]: 1990 ± 176 ng·h/mL
